Assay results from patent US20250042908A1, “SALTS FOR MTOR COMPOUNDS” (GALDERMA HOLDING S.A., priority 2022, published 2025).
Where a name gives a salt, the structure may show the parent alone. Read-outs that look alike come from different tables or passages of the source.

Assays:
[1] = XRPD analysis of solid residues collected from the water solubility assay; format: physicochemical; details: solids in suspension in water collected after 24 h stirring, compared to material as received
Procedure: XRPD analysis was conducted with a Bruker D8-Advance diffractometer, type: Bragg-Bentano. Source CuKα1, λ=1.5406 Å and CuKα2, λ2=1.54439 Å. Generator: 35 kV-40 mA. Detector: Lynx Eye.
The sample was analyzed using the following protocol: Around 3 mg of the test compound delivered as solid material is gently grounded to homogenize the powder and deposed on zero-diffraction Silicon sample holder. The sample holder is then placed in the X-Ray Diffractometer chamber.
The copper anode X-ray source is turned on using a generator set at 35 kV voltage and at 40 mA intensity. While X-ray beam irradiates the sample, both X-ray source and X-ray detector move on the goniometer with equal 0 angle: diffractometer in Bragg-Brentano configuration. XRPD pattern is recorded in the [2°; 40°] 2θ angle range by step of 0.040 in 20 and for 1 second at each angle step.
(§1) The target concentration tested to measure the maximum solubility of the 3 salts (phosphate, malonate and malate) and free base in 6 different media was 30 mg/ml. Solids in suspension in water solubility assays have been collected by centrifugation (15 min at 18000 rpm) after 24 h stirring for XRPD analysis. Recorded XRPD patterns have been compared to the one recorded for the salts or free base as received (see FIGS. 8-11).

[2] = Solubility of free base and salts in 6 different media (UPLC-UV); format: physicochemical; details: target concentration 30 mg/ml; for solubility at 24 h: thermodynamic from solid
Procedure: The following protocol has been used to prepare samples for solubility measurements at room temperature in the 6 different media. First, weigh appropriate amount of each salt and free base compound to reach the desired target concentration (30 mg/ml). Addition at room temperature the studied media to reach the selected target concentration, follow by orbital stirring at room temperature for 24 h, while protected from light. Except for the glycerin medium, separation of the soluble fraction from the non-soluble fraction is performed by centrifugation (15 min at 18000 rpm) followed by filtration on PTFE 0.45 μm membrane. For the glycerin medium, 3 steps of centrifugation (15 mw at 18000 rpm) to collect the supernatant was performed. The resulting filtrates and supernatant for glycerin medium were diluted in appropriate solvents described in the following table to be in the range of calibration curve. Quantification of the diluted and undiluted samples was performed using UPLC-UV.
A standard calibration curve (chromatographic UV peak area vs concentration) between 0.5 μg/mL and 500 μg/mL was established in DMSO according to the following protocol. First, weighing 1 mg free base, then addition of DMSO until a 1 mg/mL clear DMSO Stock solution is obtained. Next, selected compound DMSO solutions at 5 different concentrations (500 ag/mL, 250 ag/mL, 100 ag/ml, 25 μg/ml and 0.5 μg/mL) were prepared by dilution with pure DMSO.
Samples were analysed by UPLC-UV-MS according to the following: (a) Instrument: Waters Acquity H-Class with PDA and QDa detectors; (b) Column: Waters Acquity BEH C18, 1.7 m, 2.1×50 mm; (c) Flow rate: 0.65 ml/min; (d) UV detection: 220 nm, 254 nm, 290 nm; (e) Column temperature: 40° C.; (f) Injection volume: 0.4 μl; (g) Mobile phase: Gradient with solutions A and B prepared according to Table 6; (h) Ionisation mode: ESI+/ESI−; (i) Source temperature: 600° C.; (j) Capillary voltage: 0.8 kV; and (k) Cone voltage: +20V/−20V.
as §1

[3] = In vitro permeation testing in Franz cells; format: in vitro ADME; details: human abdominal skin, Franz cell
Procedure: In vitro permeation testing was performed using human abdominal skin from 3 donors and 2 samples per donor with a thickness of 400 μm (±100 μm). The samples were used in Franz cell 2 cm^2 of diameter and a receptor volume of 3 mL (PBS+4% BSA (Bovine Serum Albumin).
The receptor compartment was surrounded by a water jacket heated to 37° C.±1° C. insuring a skin surface temperature of 32° C.±1° C. The receptor compartment is separated from the donor compartment by the skin membrane where the epidermis side faces the donor. Receptor compartments containing magnetic stirrer bar, were filled with the receptor fluid in such a way to prevent any formation of air-bubbles. During the diffusion experiment, receptor fluids were continuously stirred in order to ensure homogenization.
Abdominal skins from aesthetic surgery were used in this study. Skins, upon arrival, were separated from hypodermis with the help of tweezers and a scalpel blade. Skins were gently washed and stored flat in aluminum foil for freezing at −20° C. At the day of experiment, skins were thawed then cut in smaller pieces to fit with diffusion cell geometry. In this experiment three donors were used. Skin specimens were mounted onto Franz diffusion cells with PBS+4% Bovine Serum Albumin as a receptor fluid. […]
Following at least 45 min equilibrium with receptor fluid, skin integrity is assessed by Transepidermal Water Loss (TEWL) measurements. […] TEWL is again measured and cells still depicting a high water flux are recorded. […] Individual TEWL values for each skin specimen used, room temperature and relative humidity were also recorded.
Test Items were applied at a dose of 5 mg/cm^2 for 24 hours on the skin samples in the Franz cell. At the end of exposure, the following samples were recovered: Stratum corneum (not analysed), epidermis, dermis and receptor fluid were collected analysed for API content.
The samples were analyzed following LC/MS/MS method internally certified. […] Percutaneous fluxes were calculated as the ratio of permeated amounts in receptor fluid (RF) of each individual cell to the duration of exposure (24 h).

[4] = Glycerin/Water 5/95 (v/v), room temperature, 24 h
[5] = Glycerin/Water 10/90 (v/v), room temperature, 24 h
[6] = Glycerin/Water 20/80 (v/v), room temperature, 24 h
[7] = Transcutol/Water 10/90 (v/v), room temperature, 24 h
[8] = glycerin, room temperature, 24 h
[9] = water, orbital stirring at room temperature for 24 h
[10] = Glycerin/Water 5/95 (v/v), aqueous with cosolvent or surfactant or cyclodextrin, Glycerin/Water 5/95 (v/v), room temperature, 24 h, read-out: Solubility, Glycerin/Water 5/95 (v/v)
[11] = Glycerin/Water 10/90 (v/v), aqueous with cosolvent or surfactant or cyclodextrin, Glycerin/Water 10/90 (v/v), room temperature, 24 h, read-out: Solubility, Glycerin/Water 10/90 (v/v)
[12] = Glycerin/Water 20/80 (v/v), aqueous with cosolvent or surfactant or cyclodextrin, Glycerin/Water 20/80 (v/v), room temperature, 24 h, read-out: Solubility, Glycerin/Water 20/80 (v/v)
[13] = Transcutol/Water 10/90 (v/v), aqueous with cosolvent or surfactant or cyclodextrin, Transcutol/Water 10/90 (v/v), room temperature, 24 h, read-out: Solubility, Transcutol/Water 10/90 (v/v)
[14] = glycerin, organic solvent or mixture, glycerin, room temperature, 24 h, read-out: Solubility, Glycerin
[15] = water, water, orbital stirring at room temperature for 24 h, read-out: Solubility, Water
[16] = 5 mg/cm^2 for 24 hours, 0.63 w/w % phosphate salt vs 0.5 w/w % free base

| XRPD of solid residues in water [1] | Solubility, Glycerin/Water 5/95 (v/v) [2, 4] [µg/mL] | Solubility, Glycerin/Water 10/90 (v/v) [2, 5] [µg/mL] | Solubility, Glycerin/Water 20/80 (v/v) [2, 6] [µg/mL] | Solubility, Transcutol/Water 10/90 (v/v) [2, 7] [µg/mL] | Solubility, Glycerin [2, 8] [µg/mL] | Solubility, Water [2, 9] [µg/mL] | solubility at 24 h [2, 10] [µg/mL] | solubility at 24 h [2, 11] [µg/mL] | solubility at 24 h [2, 12] [µg/mL] | solubility at 24 h [2, 13] [µg/mL] | solubility at 24 h [2, 14] [µg/mL] | solubility at 24 h [2, 15] [µg/mL] | ratio of percutaneous flux over dermis concentration, phosphate salt compared to free base [3, 16] | skin permeability coefficient (Kp), phosphate salt relative to free base [3, 16] [times] | permeability of formulation compared to free base formulation ([3]; 24 hours, 10% w/w propylene glycol of the free base formulation replaced with water) | Structure (SMILES) |
| --- | --- | --- | --- | --- | --- | --- | --- | --- | --- | --- | --- | --- | --- | --- | --- | --- |
| No crystalline phase conversion | 29 | 45 | 71 | 256 | 6400 ± 300 | 180 | – | – | – | – | – | – | – | – | – | CC(C)CC(C)n1nc(-c2ccc3oc(N)nc3c2)c2c(N)nc(N)nc21 (stereo not shown) [Free Base, 3-(2-Amino-1,3-benzoxazol-5-yl)-1-(1,3-dimethylbutyl)pyrazolo[3,4-d]pyrimidine-4,6-diamine] |
| No crystalline phase conversion | – | – | – | – | – | – | 2100 ± 300 | 2200 ± 200 | 2900 ± 200 | 3100 ± 300 | 21100 ± 200 | 1600 | – | – | – | CC(C)CC(C)n1nc(-c2ccc3oc(N)nc3c2)c2c(N)nc(N)nc21.O=C(O)C[C@H](O)C(=O)O (stereo not shown) [Malate Salt] |
| Crystalline Phase conversion | – | – | – | – | – | – | 2700 ± 200 | 2900 ± 200 | 3500 ± 200 | 3700 ± 200 | 24700 ± 300 | 2200 | – | – | – | CC(C)CC(C)n1nc(-c2ccc3oc(N)nc3c2)c2c(N)nc(N)nc21.O=C(O)CC(=O)O (stereo not shown) [Malonate Salt] |
| No crystalline phase conversion | 4300 ± 200 | 4700 ± 200 | 5700 ± 200 | 5500 ± 200 | 15800 ± 300 | 3900 ± 200 | – | – | – | – | – | – | over 600 times | 3 | superior permeability | CC(C)CC(C)n1nc(-c2ccc3oc(N)nc3c2)c2c(N)nc(N)nc21 (stereo not shown) [Phosphate Salt] |
